US20090270312A1, “HIV-I GP41 FUSION PEPTIDES FOR IMMUNOMODULALTION” (priority 2005, published 2009)
Residues, ends and D or L forms follow the SMILES beside them.

Experiments:
lymph node cells (LNC) [1] = experiment: Cell survival in culture with peptide; type: cell-based, rat; details: cells incubated with peptide
lymph node cells (LNC) [2] = experiment: T-cell proliferation of mice LNC with MOG 35-55 peptide antigen; type: cell-based; details: MOG35-55 peptide
Lewis rats = experiment: Adjuvant Arthritis (AA); type: in vivo, rat; details: 100 μg peptide in IFA with Mt at AA induction
Procedure: Induction and Assessment of Adjuvant Arthritis (AA). To test the effect of FP on T-cell activation in vivo, AA was used as a model system. AA was induced by injecting 50 μl of Mt suspended in IFA (0.5 mg/ml) at the base of the tail. At the time of AA induction, each rat also received 100 μg of FP or control peptide, or PBS dissolved in 50 μl of IFA and mixed with Mt/IFA used to induce AA. The day of AA induction was designated as day 0. Disease severity was assessed by direct observation of all 4 limbs in each animal. A relative score between 0 and 4 was assigned to each limb, based on the degree of joint inflammation, redness and deformity; thus the maximum possible score for an individual animal was 16 (Quintana et al., 2002). The mean AA score (±SEM) is shown for each experimental group. Arthritis was also quantified by measuring hind limb diameter with a caliper. Measurements were taken on the day of the induction of AA and 26 days later (at the peak of AA); the results are presented as the mean±SEM of the difference between the two values for all the animals in each group. The person who scored the disease was blinded to the identity of the groups.
AA was induced in rats as indicated above; at the time of AA induction, each rat also received 100 μg of IFFA or PBS dissolved in 50 μl of IFA and mixed with Mt/IFA used to induce AA. Disease severity was assessed as described above.

gp41 = gp41 (Human immunodeficiency virus type 1 group M subtype B, UniProt P04578); details: effect of incorporation of D amino acids; cited from earlier work
lymph node cells (LNC) [3] = experiment: T-cell proliferation of LNC from Mt immunized rats ([methyl-3H]-thymidine incorporation); type: cell-based; details: rat LNC, PPD 25 μg/ml
Procedure: T-cell proliferation. T-cell proliferation assays were performed using either lymph node cells (LNC) or the A2b T cell line, which reacts with the Mt176-90 peptide. Popliteal and inguinal LNC were removed 26 days after the injection of Mt in incomplete Freund's adjuvant (IFA), when strong T cell responses to PPD and Mt176-90 are detectable (Quintana et al., 2002). LNC were cultured at a concentration of 2×10^5 cells per well; 5×10^4 A2b T cells were stimulated in the presence of irradiated 5×10^5 thymic antigen presenting cells (APC) per well, prepared as previously described (van Eden et al., 1985). The cells were plated in quadruplicates in 200 μl round bottom microtiter wells (Costar Corp., Cambridge, USA), with or without antigen, in the presence of various concentrations of the peptides under study. For some experiments, the cells were activated with immobilized anti-CD3 antibodies or PMA/ionomycin as described (Wang et al., 2002). Cultures were incubated for 72 hr at 37° C. in a humidified atmosphere of 7.5% CO2. T-cell responses were detected by the incorporation of [methyl-3H]-thymidine (Amersham, Buckinghamshire, UK; 1 μCi/well), added during the last 18 hr of incubation. The results of T cell proliferation experiments are shown as the % of inhibition of the T cell proliferation triggered by the antigenin the absence of HIV or control peptides. […]

LNC from injected rats = experiment: T cell immunity to the injected peptide: IFN-γ secretion of LNC incubated ex vivo with the same peptide; type: in vivo, rat
Description: Cytokine assays. Supernatants were collected after 72 hr of stimulation, and rat IL-10 and IFNγ were quantified by enzyme-linked immunosorbent assay (ELISA) using Pharmingen's OPTEIA kit (Pharmingen, San Diego, USA) as described (Quintana et al., 2002). When needed, cytokine levels are expressed as percentage of cytokine inhibition relative to cytokine levels when no peptide is present. Otherwise, the cytokines are shown as pg/ml. The lower limits of detection for the experiments described in this paper were 15 pg/ml for IL-10 and IFNγ. Cytokine amounts were calculated based on calibration curves constructed using recombinant cytokines as standards.
Rats were injected with FP, a control peptide (V2E or IFFA) or PBS in the presence of Mt and IFA. Twenty six days later, LNC were collected and incubated ex vivo with FP, V2E, IFFA, or PBS, respectively, and their IFN-γ secretion level was determined. […] LNC (incubated with PBS). […] Thus, the immunosuppressive effect of FP is sequence and structure specific.

Balb/c mice = experiment: DTH response to oxazolone, dermal treatment; type: in vivo; details: 100 μg in 40 μl DMSO on the ear one hour after challenge, measured 24 h after challenge
Procedure: In other experiments, DTH response to oxazolone in the presence of FP and IFFA was measured. Female Balb/c mice (5 mice per group) were sensitized to the shaved abdominal skin with 100 microliter of 2% oxazolone dissolved in acetone/olive oil (4:1 vol/vol) applied topically, and 5 days later challenged with 20 microliter of 0.5% oxazolone in acetone/olive oil, 10 microliter administered to each side of the ear. One hour after stimulation, FP, IFFA (100 μg in 40 μl DMSO) or DMSO were administered to each side of the ear. A constant area of the ear was measured immediately before challenge and 24 h after challenge.

Sequence of gp41 (P04578 512-856): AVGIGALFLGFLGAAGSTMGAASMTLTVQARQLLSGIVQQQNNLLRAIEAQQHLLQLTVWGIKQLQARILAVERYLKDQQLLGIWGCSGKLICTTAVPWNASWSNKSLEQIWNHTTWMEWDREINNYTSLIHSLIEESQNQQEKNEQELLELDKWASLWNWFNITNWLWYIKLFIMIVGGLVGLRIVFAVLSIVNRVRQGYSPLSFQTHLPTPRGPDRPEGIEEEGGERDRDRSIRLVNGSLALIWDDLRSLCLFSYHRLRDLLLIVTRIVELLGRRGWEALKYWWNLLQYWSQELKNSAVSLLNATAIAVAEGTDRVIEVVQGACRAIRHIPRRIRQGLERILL

Compound: CC[C@H](C)[C@H](NC(=O)CNC(=O)[C@H](CCC(=O)O)NC(=O)[C@H](C)N)C(=O)NCC(=O)N[C@@H](C)C(=O)N[C@@H](CC(C)C)C(=O)N[C@@H](Cc1ccccc1)C(=O)N[C@@H](CC(C)C)C(=O)NCC(=O)N[C@@H](Cc1ccccc1)C(=O)N[C@@H](CC(C)C)C(=O)NCC(=O)N[C@@H](C)C(=O)N[C@@H](C)C(=O)NCC(=O)N[C@@H](CO)C(=O)N[C@H](C(=O)N[C@@H](CCSC)C(=O)NCC(=O)N[C@@H](C)C(=O)N[C@@H](CCCNC(=N)N)C(=O)N[C@@H](CO)C(=O)N[C@@H](CCSC)C(=O)N[C@H](C(=O)N[C@@H](CC(C)C)C(=O)N[C@H](C(=O)N[C@H](C(=O)N[C@@H](CCC(N)=O)C(=O)N[C@@H](C)C(=O)N[C@@H](CCCNC(=N)N)C(=O)N[C@@H](CCC(N)=O)C(=O)N[C@@H](CC(C)C)C(=O)O)C(C)C)[C@@H](C)O)[C@@H](C)O)[C@@H](C)O [V2E]
- survival of cells in culture (lymph node cells (LNC) [1]): the same survival in culture

Compound: GALFLGFLG (Peptides derived of HIV-1 gp41) [FP5-13]
- inhibition of antigen-specific T cell proliferation (lymph node cells (LNC) [2]): inhibit antigen-specific T cell proliferation

Compound: CC[C@H](C)[C@H](NC(=O)CNC(=O)[C@@H](NC(=O)[C@H](C)N)C(C)C)C(=O)NCC(=O)N[C@@H](C)C(=O)N[C@@H](CC(C)C)C(=O)N[C@@H](Cc1ccccc1)C(=O)N[C@@H](CC(C)C)C(=O)NCC(=O)N[C@@H](Cc1ccccc1)C(=O)N[C@@H](CC(C)C)C(=O)NCC(=O)N[C@@H](C)C(=O)N[C@@H](C)C(=O)NCC(=O)N[C@@H](CO)C(=O)N[C@H](C(=O)N[C@@H](CCSC)C(=O)NCC(=O)N[C@@H](C)C(=O)N[C@@H](CCCNC(=N)N)C(=O)N[C@@H](CO)C(=O)N[C@@H](CCSC)C(=O)N[C@H](C(=O)N[C@@H](CC(C)C)C(=O)N[C@H](C(=O)N[C@H](C(=O)N[C@@H](CCC(N)=O)C(=O)N[C@@H](C)C(=O)N[C@@H](CCCNC(=N)N)C(=O)N[C@@H](CCC(N)=O)C(=O)N[C@@H](CC(C)C)C(=O)O)C(C)C)[C@@H](C)O)[C@@H](C)O)[C@@H](C)O [FP]
- survival of cells in culture (lymph node cells (LNC) [1]): the same survival in culture

Compound: AVGIGALF (Peptides derived of HIV-1 gp41) [FP1-8]
- inhibition of antigen-specific T cell proliferation (lymph node cells (LNC) [2]): inhibit antigen-specific T cell proliferation

Compound: AVGIGALFLGFLGAAGSTMGARSMTLTVQARQL [IFFA]
- arthritis, clinical score (Lewis rats): milder arthritis
- ability to inhibit gp41-mediated membrane fusion (gp41): does not affect its ability to inhibit gp41-mediated membrane fusion
- inhibition of antigen-specific T cell proliferation (lymph node cells (LNC) [3]): inhibit antigen-specific T cell proliferation
- ex vivo activation relative to FP (LNC from injected rats; LNC collected 26 days after injection): about ten fold more than FP
- ex vivo activation (IFN-γ secretion) of LNC by the injected peptide (LNC from injected rats; LNC collected 26 days after injection with Mt and IFA): highly reactive to IFFA ex vivo
- DTH reaction to oxazolone (Balb/c mice): inhibited the DTH reaction

Compound: CC[C@H](C)[C@H](NC(=O)[C@H](CS)NC(=O)[C@H](CCCNC(=N)N)NC(=O)[C@H](CC(C)C)NC(=O)[C@H](CC(C)C)NC(=O)[C@H](C)NC(=O)[C@H](CS)NC(=O)CNC(=O)CNC(=O)CNC(=O)[C@H](CC(C)C)NC(=O)[C@@H](N)C(C)C)C(=O)N1CCC[C@H]1C(=O)N[C@@H](C)C(=O)N[C@@H](CC(C)C)C(=O)N[C@@H](CC(=O)O)C(=O)N[C@@H](CO)C(=O)N[C@@H](CC(C)C)C(=O)N[C@H](C(=O)N1CCC[C@H]1C(=O)N[C@@H](C)C(=O)N[C@@H](CC(N)=O)C(=O)N[C@@H](CCC(=O)O)C(=O)N[C@@H](CC(=O)O)C(=O)O)[C@@H](C)O [p277, reference compound] (H-VLGGGCALLRCIPALDSLTPANED-OH)
- survival of cells in culture (lymph node cells (LNC) [1]): the same survival in culture
